Each structure is given as a SMILES string. Like-named read-outs stand apart in the source and are kept apart here. Where only a bound is given, the exact number is not on record here.

We go through nine compounds from article PMC9953660, “Using ΔK280 TauRD Folding Reporter Cells to Screen TRKB Agonists as Alzheimer’s Disease Treatment Strategy” (Biomolecules, 2023).

The target of data set [1] is T1, TRKB extracellular domain (TRKB-ECD) (Homo sapiens, UniProt Q16620).
T1 construct: TRKB-ECD (marked in red, C^32-E^429, XP_016870240); His (C); made in house; host or cells: Pichia pastoris
T1 sequence (Q16620 32-429): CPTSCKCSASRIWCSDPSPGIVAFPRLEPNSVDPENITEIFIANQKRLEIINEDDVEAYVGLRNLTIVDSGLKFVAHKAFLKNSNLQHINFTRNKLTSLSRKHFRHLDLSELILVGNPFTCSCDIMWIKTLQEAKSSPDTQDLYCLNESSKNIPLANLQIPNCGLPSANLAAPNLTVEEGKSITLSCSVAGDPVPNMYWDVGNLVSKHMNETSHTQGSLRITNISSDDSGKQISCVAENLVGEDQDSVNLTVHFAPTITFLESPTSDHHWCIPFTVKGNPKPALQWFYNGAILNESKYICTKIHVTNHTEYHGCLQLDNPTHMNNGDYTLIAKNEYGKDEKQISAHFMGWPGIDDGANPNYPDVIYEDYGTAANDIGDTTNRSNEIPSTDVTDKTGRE
Set-up: method as in PMID 25143381. The following applies: read-out: KD (TRKB-ECD binding affinity), reported value; cited from earlier work.

Data set [2] deals with T1, TRKB extracellular domain (TRKB-ECD). As to the kind of experiment: Tryptophan fluorescence quenching assay. The settings on record: Pichia pastoris-expressed TRKB-ECD, 0–1000 nM, excitation 295 nm, emission 330 nm, room temperature; read-out: KD (TRKB-ECD binding affinity). The protocol: The interaction between the N-terminal extracellular domain of TRKB (TRKB-ECD) and 7,8-DHF (as positive control; [35]), ZN-015, VB-030 or VB-037 was evaluated with tryptophan fluorescence titration. TRKB-ECD-His protein was expressed in the Pichia expression system (Invitrogen) and purified as stated. Intrinsic tryptophan fluorescence spectra with titration of a different concentration of compounds (0–1000 nM) were recorded by fluorescence spectrophotometer F-7000 (Hitachi, Tokyo, Japan), with excitation wavelength 295 nm and emission wavelength in the range of 300–400 nm. The calculation of dissociation constant (KD) between the 7,8-DHF or ZN/VB compound and TRKB was described in a previous report.

The next data set in a line: MTT cell viability assay. The settings on record: human. Type of data set: cell-based. The protocol:
Human neuroblastoma SH-SY5Y cells with inducible ΔK280 TauRD-DsRed expression were maintained in DMEM/F-12 supplemented with fetal bovine serum (FBS, 10%) (Thermo Scientific, Waltham, MA, USA), penicillin/streptomycin (100 U/mL), selection antibiotics hygromycin (100 μg/mL) and blasticidin (5 μg/mL) (InvivoGen, San Diego, CA, USA), and 1.5 g/l sodium bicarbonate. Cells were cultured at 37 °C in a 5% CO2 atmosphere. The cell viability of ZN and VB compounds (concentration range: 0.1–100 μM) was evaluated by a 3-(4,5-dimethylthiazol-2-yl)-2,5-diphenyltetrazolium bromide (MTT; Sigma-Aldrich) colorimetric assay. The absorbance at 570 nm was recorded by a Multiskan™ GO Microplate Spectrophotometer (Thermo Scientific).
(In general: Tetrazolium assays rely on reduction of a dye to a coloured formazan, in cell work by metabolically active cells.)

Data set [3] can be described thus: Cell number / cell survival in induced ΔK280 TauRD-DsRed SH-SY5Y cells (high-content). The following applies: human; induced SH-SY5Y cells expressing ΔK280 TauRD-DsRed for 6 days, 2–10 μM tested; read-out: IC50 cytotoxicity based on cell number. Type of data set: cell-based, human. On the procedure: (§1) ΔK280 TauRD-DsRed SH-SY5Y cells were plated in the presence of 10 μM retinoid acid (RA; Sigma-Aldrich) to promote neuronal differentiation. The next day, cells were added with congo red or ZN/VB compounds (2–10 μM) for 8 h pretreatment, followed by inducing ΔK280 TauRD-DsRed expression with doxycycline (2 μg/mL). On day 8, cell nuclei were stained with Hoechst 33342 (0.1 μg/mL; Thermo Scientific), and cell images acquired using ImageXpress Micro Confocal High-Content Imaging System (Molecular Devices, San Jose, CA, USA) with DAPI (4′,6-diamidino-2-phenylindole, for nuclei) and TRITC (tetramethylrhodamine, for DsRed) fluorescence filter sets. To detect ROS changes, 10 μM compound-treated cells were stained with Hoechst 33342 and 2′,7′-dichlorodihydrofluorescein diacetate (H2DCFDA, 10 μM) fluorescein (Invitrogen, Carlsbad, CA, USA), and cell images captured using DAPI and FITC (fluorescein isothiocyanate, for DCF) filters. For assessing differential neurite outgrowth, 10 μM compound-treated cells were fixed (paraformaldehyde, 4%), permeabilized (Triton X-100, 0.3%), and stained with class III β-tubulin (TUBB3, 1:1000) primary antibody (#802001, BioLegend, San Diego, CA, USA), followed by donkey anti-rabbit Alexa Fluor® 555 secondary antibody (1:1000; #A-31572, Invitrogen) and DAPI (0.1 μg/mL; Sigma-Aldrich) stains. The nuclei and neurite images were acquired with DAPI and TRITC fluorescence filters, respectively. All analyses of images were performed using MetaXpress software (Molecular Device).

Data set [4] concerns the target T2, E. coli-expressed ΔK280 TauRD protein (Homo sapiens, UniProt P10636, DEL597-597).
T2 construct: TauRD (Q^244-E^372 of Tau, NP_005901) aggregation; N-terminal Met (N); made in house; host or cells: E. coli
As to the kind of experiment: Thioflavin T fluorescence ΔK280 TauRD aggregation assay. Type of data set: biochemical. The following applies: TauRD protein 20 μM, 48 h at 37 °C; read-out: EC50 inhibiting ΔK280 TauRD aggregation. The protocol: The anti-aggregation activity of congo red (positive control) and ZN/VB compounds (5–20 μM) was assessed using E. coli-expressed ΔK280 TauRD protein [33] and thioflavin T (Sigma-Aldrich) fluorescence assay. The trend of ΔK280 TauRD amyloid aggregate formation depicted with enhanced and red-shifted fluorescence was recorded by a FLx800 microplate fluorescence reader (BioTek Instruments), where the procedure was previously reported in detail.

Data set [5] has as its system SH-SY5Y cells expressing ΔK280 TauRD-DsRed. As to the kind of experiment: Cell number / cell survival in induced ΔK280 TauRD-DsRed SH-SY5Y cells (high-content). The following applies: induced ΔK280 TauRD-DsRed SH-SY5Y, 2–10 μM. Format: cell-based, human. On the procedure: as §1
The next data set addresses T3, ΔK280 TauRD-DsRed (Homo sapiens, UniProt P10636, DEL597-597).
T3 construct: TauRD (Q^244-E^372 of Tau, NP_005901) aggregation; expressed in transfected cells; host or cells: SH-SY5Y (Tet-On, doxycycline-inducible)
The data set is described as follows: High-content DsRed fluorescence assay of ΔK280 TauRD-DsRed folding reporter cells. Format: cell-based. The following applies: 10 μM; untreated cells = 100%; 8 h pretreatment, 6 day Dox induction. The protocol: as §1, with “For assessing differential neurite outgrowth, 10 μM compound-treated cells were fixed (paraformaldehyde, 4%), permeabilized (Triton X-100, 0.3%), and stained with class III β-tubulin (TUBB3, 1:1000) primary antibody (#802001, BioLegend, San Diego, CA, USA), followed by donkey anti-rabbit Alexa Fluor® 555 secondary antibody (1:1000; #A-31572, Invitrogen) and DAPI (0.1 μg/mL; Sigma-Aldrich) stains.” left out, “All analyses of images were performed using MetaXpress software (Molecular Device).” left out

The nature of data set [6]: DPPH free-radical scavenging assay. Type of data set: physicochemical. The settings on record: 10–160 μM, compared to kaempferol. On the procedure: Free-radical scavenging activity of kaempferol (positive control) and ZN/VB compounds (10–160 μM) was measured using a 1,1-diphenyl-2-picrylhydrazyl (DPPH; Sigma-Aldrich) photometric assay as stated. The absorbance at 517 nm was assessed by a Multiskan™ GO Microplate Spectrophotometer (Thermo Scientific). An oxygen radical absorbance capacity (ORAC) assay of kaempferol and ZN/VB compounds (4–100 μM) was conducted according to the manufacturer’s instructions (OxiSelect™; Cell Biolabs, San Diego, CA, USA). The decrease of fluorescence intensity was monitored by a FLx800 microplate fluorescence reader (BioTek Instruments, Winooski, VT, USA). The ORAC activity was quantified as a trolox-equivalent antioxidant capacity.
A general note: Loss of DPPH colour is used to gauge radical scavenging.

Data set [7] has as its system ROS in ΔK280 TauRD-DsRed SH-SY5Y cells. The data set is described as follows: High-content assessment of cellular ROS (H2DCFDA). Type of data set: cell-based, human. The following applies: 10 μM; uninduced = 100%, induced untreated 123%; range over compounds. On the procedure:
as §1, with “For assessing differential neurite outgrowth, 10 μM compound-treated cells were fixed (paraformaldehyde, 4%), permeabilized (Triton X-100, 0.3%), and stained with class III β-tubulin (TUBB3, 1:1000) primary antibody (#802001, BioLegend, San Diego, CA, USA), followed by donkey anti-rabbit Alexa Fluor® 555 secondary antibody (1:1000; #A-31572, Invitrogen) and DAPI (0.1 μg/mL; Sigma-Aldrich) stains.” left out, “All analyses of images were performed using MetaXpress software (Molecular Device).” left out

T2 sequence (P10636 with tags, fused parts or gaps isoform P10636-8 DEL280-280): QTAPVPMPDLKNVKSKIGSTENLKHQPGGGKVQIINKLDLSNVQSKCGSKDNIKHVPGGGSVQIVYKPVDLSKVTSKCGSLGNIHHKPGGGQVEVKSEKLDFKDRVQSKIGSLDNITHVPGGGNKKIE
T3 sequence (P10636 with tags, fused parts or gaps isoform P10636-8 DEL280-280): as above

For the compound `O=c1cc(-c2ccccc2)oc2c(O)c(O)ccc12` [7,8-DHF, 7,8-dihydroxy flavone, reference compound], the Kd was 12.1 ± 1.6 nM in data set [1] and 13.4 ± 8.4 nM in [2].
`O=C(O)COc1cc(O)c2c(=O)cc(-c3ccccc3)oc2c1` [ZN-006, 2-((5-hydroxy-4-oxo-2-phenyl-4H-chromen-7-yl)oxy)acetic acid] showed an IC50 at 24 h in “MTT cell viability assay” of over 100 µM. The IC50 at 6 days in [3] was over 10 µM.
In “MTT cell viability assay”, `COc1cccc2oc(C(=O)c3ccccc3)cc12` [ZN-013, (4-methoxybenzofuran-2-yl)(phenyl)methanone] gave an IC50 at 24 h of over 100 µM. For the same compound, the IC50 at 6 days in data set [3] amounted to 27 µM.
In the case of `Cc1ccc(-c2cc(-c3ccncc3)nc3ccccc23)cc1` [VB-030, 2-(pyridin-4-yl)-4-(p-tolyl)quinoline], the EC50 in data set [4] turned out to be 20.3 µM. This compound also yielded an IC50 at 24 h in “MTT cell viability assay” of over 100 µM. Also, the IC50 at 6 days in data set [3] was over 10 µM. In addition, in data set [2], the Kd came to 11 ± 2.4 nM.
In the case of `O=C(Nc1cccc(S(=O)(=O)NC2=NCCCCC2)c1)c1cc(-c2ccncc2)nc2ccccc12` [VB-041, 2-(pyridin-4-yl)-N-(3-(N-(3,4,5,6-tetrahydro-2H-azepin-7-yl)sulfamoyl)phenyl)quinoline-4-carboxamide], in “MTT cell viability assay”, the IC50 at 24 h was over 100 µM. Besides, in data set [3], the IC50 at 6 days was over 10 µM.
Compound `Cc1ccc2[nH]c(=O)c(C(=O)/C=C/c3nc4ccccc4[nH]3)c(-c3ccccc3)c2c1` [VB-031, (E)-3-(3-(1H-benzo[d]imidazol-2-yl)acryloyl)-6-methyl-4-phenylquinolin-2(1H)-one] displayed an IC50 at 24 h in the data set “MTT cell viability assay” of 6 µM. Further, in data set [3], the IC50 at 6 days is under 2 µM. In addition, the “percentage of cell survival” value in data set [5] is reported as “less than 75%”.
On to `Nc1c(/N=N/c2ccc(-c3ccc(/N=N/c4cc(S(=O)(=O)O)c5ccccc5c4N)cc3)cc2)cc(S(=O)(=O)O)c2ccccc12` [congo red, Congo red, reference compound], for which, in data set [4], the EC50 was 13.9 µM. For the same compound, the IC50 at 6 days in [3] is over 10 µM. Also, the DsRed fluorescence on ΔK280 TauRD-DsRed amounted to 114%.
Take `O=[N+]([O-])c1cccc2nc(/C=C/c3cc4ccccc4nc3N3CCOCC3)ccc12` [VB-037, (E)-4-(3-(2-(5-nitroquinolin-2-yl)vinyl)quinolin-2-yl)morpholine]: in data set [4], the EC50 came to 13.1 µM. For the same compound, in “MTT cell viability assay”, the IC50 at 24 h was over 100 µM. In data set [6], the “DPPH free radical scavenging activity” value is reported as “very weak DPPH free radical scavenging activity”. Further, the IC50 at 6 days in data set [3] was 23 µM. In data set [7], the “ROS level (DCF fluorescence)” value is reported as “no effect on reducing ROS”. Moreover, the Kd in data set [2] came to 4.3 ± 5.2 nM.
Take `CCOC(=O)c1cc2c(O)cccc2oc1=O` [ZN-014, ethyl 5-hydroxy-2-oxo-2H-chromene-3-carboxylate]: the IC50 at 24 h in “MTT cell viability assay” (uninduced ΔK280 TauRD-DsRed SH-SY5Y, 0.1–100 μM, 24 h, read-out: IC50 cytotoxicity (MTT)) is over 100 µM. Also, the IC50 at 6 days in data set [3] is over 10 µM.

Usually Kd stands for the free concentration of one partner at which half of the binding sites on the other are occupied at equilibrium, for simple one-to-one binding. The IC50 is the point on the concentration scale where inhibition reaches its midpoint. As usually defined, the EC50 is the concentration that produces a half-maximal response.
